Laboratory results published in publication PMC6453136 (Cellular signalling, 2018).

Key:
[1] = biological target: T1, cAR1 (Dictyostelium discoideum, UniProt P13773); experiment: cell-based
T1 sequence (P13773 1-392): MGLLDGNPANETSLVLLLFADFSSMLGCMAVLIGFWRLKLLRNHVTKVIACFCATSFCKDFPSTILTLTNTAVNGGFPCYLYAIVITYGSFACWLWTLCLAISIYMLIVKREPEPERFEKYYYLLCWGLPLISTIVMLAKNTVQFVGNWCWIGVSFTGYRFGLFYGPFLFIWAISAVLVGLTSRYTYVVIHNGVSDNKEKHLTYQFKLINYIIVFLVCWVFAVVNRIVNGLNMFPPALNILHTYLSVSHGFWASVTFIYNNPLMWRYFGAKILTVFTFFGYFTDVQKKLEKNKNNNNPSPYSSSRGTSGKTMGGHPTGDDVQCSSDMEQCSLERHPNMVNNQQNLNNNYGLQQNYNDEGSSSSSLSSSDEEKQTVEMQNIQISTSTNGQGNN

[2] = test system: cAMP-induced Gα2βγ subunit dissociation; experiment: BRET^2 assay after drug pretreatment; format: cell-based, Dictyostelium; settings: for effect on interaction of Gα2 with βγ in resting cells (basal BRET^2 signal): 5 μM LatA or 50 μM Benomyl for 15 min
[3] = test system: 5.5 h-differentiated wild-type cells; experiment: DIC and fluorescence confocal imaging of drug-treated cells; format: cell-based, Dictyostelium; settings: 5 μM LatA or 50 μM Benomyl for 15 min; Lifeact-GFP / tubulin-GFP reporters
[4] = biological target: T1, cAR1
[5] = test system: cAMP binding sites; settings: 10 mM caffeine, whole cells; cited from earlier work

## Nc1ncnc2c1ncn2[C@H]1C[C@H](O)[C@@H](COP(=O)(O)O)O1 [2’-dcAMP, 2’-deoxyadenosine-5’-monophosphate]
[1]
  EC50: ~17 nM

## C/C1=C/C(=O)O[C@@H]2C[C@@H](CC[C@H](C)/C=C\C=C\CC1)O[C@@](O)([C@@H]1CSC(=O)N1)C2 [LatA, Latrunculin A]
[2]
  effect on interaction of Gα2 with βγ in resting cells (basal BRET^2 signal): did not affect
[3]
  effect on cell morphology: loss of morphological cell polarity

## CCCCNC(=O)n1c(NC(=O)OC)nc2ccccc21 [Benomyl]
[2]
  effect on interaction of Gα2 with βγ in resting cells (basal BRET^2 signal): did not affect
[3]
  effect on cell morphology: loss of morphological cell polarity

## Nc1ncnc2c1ncn2[C@@H]1O[C@@H]2COP(=O)(O)O[C@H]2[C@H]1O [cAMP, cyclic adenosine monophosphate]
[4]; 10 μM cAMP
  time to steady state of BRET^2 loss after stimulation: approximately 20 s
[4]; 10 μM cAMP, Gα2GFP^2/Rluc2Gβ/gα2^− cells
  decrease in total BRET^2 signal: 30–40
[4]; 10 μM cAMP, Gα2GFP^2/Rluc2Gβ/gα2^− cells, 63 mBU before stimulation
  total BRET^2 signal after stimulation: 36 mBU
[4]; 10 μM cAMP, carA^− and carA^−carC^− cells, undifferentiated and 5.5 h-differentiated
  G protein subunit dissociation in cells lacking cAR1: fails to induce considerable G protein subunit dissociation
[4]; Gα2GFP^2/Rluc2Gβ/gα2^− cells
  cAMP concentration inducing the full G protein dissociation response: 500 nM
[4]; carC^− cells
  G protein subunit dissociation in cells lacking only cAR3 (extent and potency): comparable to that in wild-type cells

## Cn1c(=O)c2c(ncn2C)n(C)c1=O [caffeine]
[5]
  effect on cAMP binding sites: conversion of most binding sites to the low affinity conformation
[2]; 5 mM caffeine, in parallel to untreated cells
  effect of caffeine on potency of cAMP-induced Gα2βγ subunit dissociation: significantly increased potency
